≈ marks a conversion by molar mass, not a printed value. Read-outs that look alike come from different tables or passages of the source. *1 amine or outer side, *2 acyl side, *3 side chain or, on linkers, in order; H or OH if unused. Where a SMILES comes first, the peptide text is derived from it. Bridges are numbered along the chain shown (N, C = ends). [ ]: non-standard residue; d: D form. ξ: configuration not given here. X2 = CCCCCCCCCCCC(CC(=O)[*:1])O[*:2]; ξAsp(3ξ-OH) = NC(C(=O)O)C(O)C(=O)O; X1 = O=C(C1C(O)CCN1[*:1])[*:2] A value given as a limit tells only on which side of the number the result lay.

The test system of one series is Strain G393-B445. Kind of series: Antibiotic sensitivity, paper disc-agar diffusion method. In kind it is cell-based, Empedobacter sp. Further details: key: S (sensitive); R (resistant); I (intermediate). Conditions: nutrient agar, 2 day's incubation at 28° C., Difco discs, amount/disc per antibiotic. (In general: A growth-free zone around the sample is the usual read-out of agar diffusion tests.)

For series [1], the system named is Streptococcus pyogenes Dick. The series can be described thus: MIC, serial two-fold dilution method (aerobic). The note with it: for MIC: read-out: minimum inhibitory concentration (MIC). In kind it is cell-based.
Series [2] has as its system Streptococcus pyogenes A9604. The series can be described thus: MIC, serial two-fold dilution method (aerobic). The series is classed as cell-based.
In series [3] the test system is Streptococcus pneumoniae IID-Type-I. Kind of series: MIC, serial two-fold dilution method (aerobic). In kind it is cell-based. Conditions: for MIC: read-out: minimum inhibitory concentration (MIC).
Series [4] has as its system Streptococcus pneumoniae A9585. Kind of series: MIC, serial two-fold dilution method (aerobic). In kind it is cell-based.
The test system of series [5] is Streptococcus pneumoniae A15069. The series can be described thus: MIC, serial two-fold dilution method (aerobic). The series is classed as cell-based.
In series [6] the test system is Neisseria gonorrhoeae A15112. The series can be described thus: MIC, serial two-fold dilution method (aerobic). In kind it is cell-based.
Series [7] has as its system Neisseria meningitidis A20048. Kind of series: MIC, serial two-fold dilution method (aerobic). The series is classed as cell-based.
Series [8] concerns Haemophilus influenzae A9729. The series can be described thus: MIC, serial two-fold dilution method (aerobic). In kind it is cell-based.
Another series relates to staphylococci. Kind of series: MIC summary, staphylococci. The series is classed as cell-based. Conditions: against staphylococci.
The subject of another series is streptococci. The series can be described thus: MIC summary, streptococci. Conditions: against streptococci. In kind it is cell-based.
Series [9] has as its system aerobic gram-negative organisms. In kind it is cell-based.
Series [10] deals with gram-positive rods and cocci (Clostridium, Peptostreptococcus, Propionibacterium acnes). In kind it is cell-based. The note with it: various species of Clostridium and Peptostreptococcus and strains of Propionibacterium acnes.
Series [11] deals with Anaerobic gram-negative rod bacteria, such as Bacteroides and Fusobacterium species. Kind of series: MIC summary, anaerobic gram-negative rods. The series is classed as cell-based.
The next series relates to anaerobic bacteria. The series can be described thus: MIC summary, anaerobic bacteria. In kind it is cell-based.
The next series relates to S. aureus Smith. The series can be described thus: Experimental infection of mice, PD50. The note with it: observed 5 days. In kind it is in vivo.
For a further series, the system named is S. aureus BX-1633. In kind it is in vivo, mice. Conditions: Exp. Run No. C-1319, observed 5 days.
Another series deals with S. pyogenes A20201. The series can be described thus: Experimental infection of mice, PD50. In kind it is in vivo. The note with it: observed 5 days.
For the next series, the system named is S pneumoniae A20759. The series is classed as in vivo, mice. Conditions: Exp. Run No. C-1176, observed 5 days.
The test system of the next series is C. perfringens A9635. In kind it is in vivo, mice. Conditions: observed 5 days.
Series [12] concerns aerobic and anaerobic gram-positive pathogens. More on the design: species or system mice. Conditions: mouse.
Series [13] is classed as in vivo, mice. The note with it: acute toxicity. Here is the method:
The acute toxicity of Bu-2517 was determined by intravenous and intramuscular routes. No death occurred up to a dose of 400 mg/kg (iv) or 1600 mg/kg (im).

[14] abbreviates: Streptococcus pyogenes Dick, GC medium, inoculum 10^6 CFU/ml.
The mark [15] stands for this setting: Streptococcus pneumoniae IID-Type-I, GC medium, inoculum 10^6 CFU/ml.
Setting [16] is: Streptococcus pyogenes A9604, GC medium, inoculum 10^6 CFU/ml.
Setting [17] is: Streptococcus pneumoniae A9585, GC medium, inoculum 10^6 CFU/ml.
[18] abbreviates: Streptococcus pneumoniae A15069, GC medium, inoculum 10^6 CFU/ml.
[19] abbreviates: Neisseria gonorrhoeae A15112, GC medium, inoculum 10^6 CFU/ml.
The mark [20] stands for this setting: Neisseria meningitidis A20048, GC medium, inoculum 10^6 CFU/ml.
The mark [21] stands for this setting: Haemophilus influenzae A9729, GC medium, inoculum 10^6 CFU/ml.
[22] abbreviates: Exp. Run No. C-1247, 1.3 × 10^6 cell/mouse, 350 × LD50, im just before challenge.
[23] abbreviates: Exp. Run No. C-1312, 1.3 × 10^6 cell/mouse, 200 × LD50, im just before challenge.
The mark [24] stands for this setting: Exp. Run No. C-1313, 1.3 × 10^2 cell/mouse, 60 × LD50, im just before challenge.
The mark [25] stands for this setting: Exp. Run No. C-1318, 2.5 × 10^7 cell/mouse, 11 × LD50, im just before challenge.

`CC1(C)S[C@@H]2[C@H](NC(=O)[C@H](N)c3ccccc3)C(=O)N2[C@H]1C(=O)O` [Ampicillin]: the “Sensitivity Strain G393-B445” value in the series with Strain G393-B445 is given as “S”. Besides, the MIC in [1] (setting [14]) stood at 0.013 µg/mL (≈ 0.0372 µM); in series [2] (Streptococcus pyogenes A9604, GC medium, inoculum 10^6 CFU/ml, read-out: minimum inhibitory concentration (MIC)) it was 0.013 µg/mL (≈ 0.0372 µM); in series [3] (setting [15]), 0.025 µg/mL (≈ 0.0715 µM); in series [4] (Streptococcus pneumoniae A9585, GC medium, inoculum 10^6 CFU/ml, read-out: minimum inhibitory concentration (MIC)), 0.025 µg/mL (≈ 0.0715 µM); in series [5] (Streptococcus pneumoniae A15069, GC medium, inoculum 10^6 CFU/ml, read-out: minimum inhibitory concentration (MIC)), 0.025 µg/mL (≈ 0.0715 µM); in [6] (Neisseria gonorrhoeae A15112, GC medium, inoculum 10^6 CFU/ml, read-out: minimum inhibitory concentration (MIC)), 0.4 µg/mL (≈ 1.14 µM). Further, the MIC turned out to be 0.4 µg/mL (≈ 1.14 µM) in [7] (Neisseria meningitidis A20048, GC medium, inoculum 10^6 CFU/ml, read-out: minimum inhibitory concentration (MIC)) and 0.8 µg/mL (≈ 2.29 µM) in series [8] (Haemophilus influenzae A9729, GC medium, inoculum 10^6 CFU/ml, read-out: minimum inhibitory concentration (MIC)).

Turning to `CCCCCCCCCCCC1CC(=O)N2CCCC2C(=O)NC(CO)C(=O)N2CCCC2C(=O)NC(CCCNC(=N)N)C(=O)NC(C(O)C(=O)O)C(=O)NC(CO)C(=O)N2CCC(O)C2C(=O)NC(C(O)C(=O)O)C(=O)O1` (stereo not drawn) [Bu-2517] (PSPR[ξAsp(3ξ-OH)]S[X1][ξAsp(3ξ-OH)]; linker N-C via X2; configuration not given here), the “pH range in which aqueous solution forms a precipitate” value was 2.4-4.2. Also, the “minimum inhibitory concentration (MIC)” value in series [1] (setting [14]) amounted to 1.6 µg/mL (≈ 1.42 µM). In addition, in series [2] (setting [16]), the “minimum inhibitory concentration (MIC)” value was 1.6 µg/mL (≈ 1.42 µM). Also, the “minimum inhibitory concentration (MIC)” value in [3] (setting [15]) stood at 0.8 µg/mL (≈ 0.71 µM). The “minimum inhibitory concentration (MIC)” value in series [4] (setting [17]) was 1.6 µg/mL (≈ 1.42 µM). Further, the “minimum inhibitory concentration (MIC)” value in series [5] (setting [18]) came out at 1.6 µg/mL (≈ 1.42 µM). Besides, the “minimum inhibitory concentration (MIC)” value in [6] (setting [19]) was above 100 µg/mL. Besides, the “minimum inhibitory concentration (MIC)” value in [7] (setting [20]) was above 100 µg/mL. Moreover, in series [8] (setting [21]), the “minimum inhibitory concentration (MIC)” value is above 100 µg/mL. The “fold more active than amphomycin” value with staphylococci is 2-4 fold. The “fold more active than amphomycin” value with streptococci is 8-32 fold. For the same compound, in [9], the “activity against aerobic gram-negative organisms” value is “no activity”. In addition, the “inhibition of anaerobic gram-positive rods and cocci tested” value in series [10] was “inhibited all”. In [11], the “susceptibility of anaerobic gram-negative rod bacteria” value is “generally resistant”. In addition, the “antianaerobic activity, times more potent than amphomycin” value in the series with anaerobic bacteria was 2-16 times. Moreover, the “PD50 (mg/kg, im)” value in the series on S. aureus Smith (setting [22]) was determined as 3.3 mg/kg. Further, the “PD50 (mg/kg, im)” value in the series on S. aureus Smith (setting [23]) came out at 3.3 mg/kg. In the series with S. aureus BX-1633, the “PD50 (mg/kg, im)” value stood at 3.6 mg/kg. The “PD50 (mg/kg, im)” value in the series on S. pyogenes A20201 (Exp. Run No. C-1174, 1.3 × 10^2 cell/mouse, 30 × LD50, im just before challenge) worked out at 1.0 mg/kg. For the same compound, in the series on S. pyogenes A20201 (setting [24]), the “PD50 (mg/kg, im)” value is recorded as 1.5 mg/kg. For the same compound, the “PD50 (mg/kg, im)” value with S pneumoniae A20759 was 1.9 mg/kg. In addition, the “PD50 (mg/kg, im)” value in the series on C. perfringens A9635 (Exp. Run No. C-1175, 2.5 × 10^7 cell/mouse, 18 × LD50, im just before challenge) amounted to 5.5 mg/kg. Further, the “PD50 (mg/kg, im)” value in the series with C. perfringens A9635 (setting [25]) is 6.8 mg/kg. Further, the “in vivo activity relative to the potency of amphomycin” value in series [12] is recorded as “equal to up to three times”. For the same compound, the “dose up to which no death occurred” value in series [13] (im) amounted to 1600 mg/kg. Besides, the “intravenous dose at which mice died” value in series [13] (intravenous) is listed as 800 mg/kg. Further, the “dose up to which no death occurred” value in series [13] (iv) is 400 mg/kg. Moreover, the “intravenous LD50” value in series [13] (mice, calculated) is on record as 560 mg/kg.

Take `O=C(N[C@H](CO)[C@H](O)c1ccc([N+](=O)[O-])cc1)C(Cl)Cl` [Chloramphenicol]: in the series on Strain G393-B445, the “Sensitivity Strain G393-B445” value is given as “S”.

Turning to `CC[C@H]1OC(=O)[C@H](C)[C@@H](O[C@H]2C[C@@](C)(OC)[C@@H](O)[C@H](C)O2)[C@H](C)[C@@H](O[C@@H]2O[C@H](C)C[C@H](N(C)C)[C@H]2O)[C@](C)(O)C[C@@H](C)C(=O)[C@H](C)[C@@H](O)[C@]1(C)O` [Erythromycin], the “Sensitivity Strain G393-B445” value in the series on Strain G393-B445 is reported as “S”.

As for `CN[C@H](CC(C)C)C(=O)N[C@H]1C(=O)N[C@@H](CC(N)=O)C(=O)N[C@H]2C(=O)N[C@H]3C(=O)N[C@H](C(=O)N[C@H](C(=O)O)c4cc(O)cc(O)c4-c4cc3ccc4O)[C@H](O)c3ccc(c(Cl)c3)Oc3cc2cc(c3O[C@@H]2O[C@H](CO)[C@@H](O)[C@H](O)[C@H]2O[C@H]2C[C@](C)(N)[C@H](O)[C@H](C)O2)Oc2ccc(cc2Cl)[C@H]1O` [Vancomycin], the MIC in series [1] (Streptococcus pyogenes) was 0.8 µg/mL (≈ 0.552 µM); in [2] (Streptococcus pyogenes, A9604, read-out: minimum inhibitory concentration (MIC)), 0.4 µg/mL (≈ 0.276 µM); in series [3] (Streptococcus pneumoniae) it was 0.8 µg/mL (≈ 0.552 µM); in series [4] (Streptococcus pneumoniae, A9585, read-out: minimum inhibitory concentration (MIC)), 0.4 µg/mL (≈ 0.276 µM); in series [5] (Streptococcus pneumoniae, A15069, read-out: minimum inhibitory concentration (MIC)), 0.4 µg/mL (≈ 0.276 µM); in [6] (Neisseria gonorrhoeae, A15112, read-out: minimum inhibitory concentration (MIC)), above 100 µg/mL. The MIC in series [7] (Neisseria meningitidis, A20048, read-out: minimum inhibitory concentration (MIC)) is above 100 µg/mL; in series [8] (Haemophilus influenzae, A9729, read-out: minimum inhibitory concentration (MIC)), above 100 µg/mL.

In the case of Amphomycin, the “minimum inhibitory concentration (MIC)” value is 12.5 µg/mL in [1] (setting [14]); 12.5 µg/mL in series [2] (setting [16]); 25 µg/mL in [3] (setting [15]); 25 µg/mL in series [4] (setting [17]); 25 µg/mL in [5] (setting [18]); above 100 µg/mL in series [6] (setting [19]). For the same compound, the “minimum inhibitory concentration (MIC)” value in series [7] (setting [20]) and in series [8] (setting [21]) was above 100 µg/mL in each case. The “PD50 (mg/kg, im)” value in the series on S. aureus Smith (setting [22]) is recorded as 9.0 mg/kg; in the series on S. aureus Smith (setting [23]), 3.3 mg/kg; in the series with S. aureus BX-1633, 4.4 mg/kg; in the series with S. pyogenes A20201 (setting [24]), 3.5 mg/kg; in the series with C. perfringens A9635 (setting [25]), 7.4 mg/kg.

Values taken from US4409210A, “Antibiotic compound” (priority 1982, dated 1983).
